Our source for the MIC values is US4971965A, “Antibiotics TAN-1057” (Takeda Chemical Industries, Ltd., priority 1988, dated 1990).

Converted amounts (≈) assume the structure as drawn. Where only a bound is given, the exact number is not on record here.

Common to all, as to format: cell-based
Assay [1] has as its system Staphylococcus aureus N51. As to the kind of experiment: Antibacterial activity against clinically isolated S. aureus (agar dilution MIC, Table 2). The conditions noted are these: Staphylococcus aureus; strain N51; agar dilution; Mueller Hinton medium; 10^6 CFU/ml; read-out: MIC. The protocol: (§1) DMPPC: Methicillin, KM: Kanamycin, GM: Gentamycin, EM: Erythromycin (Note
(§2) Determined by the agar dilution method. Medium: Mueller Hinton medium
(§3) (Difco, USA) Inoculum Size: 10^6 CFU/ml, 37° C.

The subject of assay [2] is Staphylococcus aureus N91. The assay is described as above. The conditions noted are these: Staphylococcus aureus; strain N91; agar dilution; Mueller Hinton medium; 10^6 CFU/ml; read-out: MIC. The protocol:
as §1, §2, §3

The subject of assay [3] is Staphylococcus aureus N326. The description is as above. The conditions noted are these: Staphylococcus aureus; strain N326; agar dilution; Mueller Hinton medium; 10^6 CFU/ml; read-out: MIC. As to the method:
as §1, §2, §3

For a further assay, the system named is Staphylococcus aureus C3. The description is as above. The conditions noted are these: Staphylococcus aureus; strain C3; agar dilution; Mueller Hinton medium; 10^6 CFU/ml; read-out: MIC. The protocol: as §1, §2, §3
Assay [4] concerns Staphylococcus aureus N267. The description is as above. The conditions noted are these: Staphylococcus aureus; strain N267; agar dilution; Mueller Hinton medium; 10^6 CFU/ml; read-out: MIC. As to the method:
as §1, §2, §3

For assay [5], the system named is Staphylococcus aureus N262. The description is as above. The conditions noted are these: Staphylococcus aureus; strain N262; agar dilution; Mueller Hinton medium; 10^6 CFU/ml; read-out: MIC. As to the method:
as §1, §2, §3

The test system of assay [6] is Staphylococcus aureus N121. Described as above. The conditions noted are these: Staphylococcus aureus; strain N121; agar dilution; Mueller Hinton medium; 10^6 CFU/ml; read-out: MIC. As to the method:
as §1, §2, §3

The test system of assay [7] is Staphylococcus aureus N247-16. Described as above. The conditions noted are these: Staphylococcus aureus, N24716; strain N247-16; agar dilution; Mueller Hinton medium; 10^6 CFU/ml; read-out: MIC. The protocol:
as §1, §2, §3

Assay [8] relates to Staphylococcus aureus N235. The assay is described as above. The conditions noted are these: Staphylococcus aureus; strain N235; agar dilution; Mueller Hinton medium; 10^6 CFU/ml; read-out: MIC. The protocol: as §1, §2, §3
Assay [9] relates to Staphylococcus aureus N176-6. Described as above. The conditions noted are these: Staphylococcus aureus, N1766; strain N176-6; agar dilution; Mueller Hinton medium; 10^6 CFU/ml; read-out: MIC. The protocol: as §1, §2, §3
Assay [10] has as its system Staphylococcus aureus FDA 209P. The assay is described as above. The conditions noted are these: Staphylococcus aureus, FDA209P; strain FDA 209P; agar dilution; Mueller Hinton medium; 10^6 CFU/ml; read-out: MIC. As to the method:
as §1, §2, §3

Assay [11] relates to Staphylococcus aureus N247. Described as above. The conditions noted are these: Staphylococcus aureus; strain N247; agar dilution; Mueller Hinton medium; 10^6 CFU/ml; read-out: MIC. As to the method:
as §1, §2, §3

Assay [12] concerns Staphylococcus aureus N129. The description is as above. The conditions noted are these: Staphylococcus aureus; strain N129; agar dilution; Mueller Hinton medium; 10^6 CFU/ml; read-out: MIC. The protocol: as §1, §2, §3
The test system of assay [13] is Staphylococcus aureus N28. The assay is described as above. The conditions noted are these: Staphylococcus aureus; strain N28; agar dilution; Mueller Hinton medium; 10^6 CFU/ml; read-out: MIC. As to the method: as §1, §2, §3
A further assay concerns Staphylococcus aureus N8. The description is as above. The conditions noted are these: Staphylococcus aureus; strain N8; agar dilution; Mueller Hinton medium; 10^6 CFU/ml; read-out: MIC. The protocol: as §1, §2, §3
For assay [14], the system named is Staphylococcus aureus N176. Described as above. The conditions noted are these: Staphylococcus aureus; strain N176; agar dilution; Mueller Hinton medium; 10^6 CFU/ml; read-out: MIC. The protocol:
as §1, §2, §3

For assay [15], the system named is Staphylococcus aureus N62. The assay is described as above. The conditions noted are these: Staphylococcus aureus; strain N62; agar dilution; Mueller Hinton medium; 10^6 CFU/ml; read-out: MIC. As to the method: as §1, §2, §3
Assay [16] has as its system Staphylococcus aureus TS-65. The description is as above. The conditions noted are these: Staphylococcus aureus, TS65; strain TS-65; agar dilution; Mueller Hinton medium; 10^6 CFU/ml; read-out: MIC. The protocol: as §1, §2, §3
The test system of assay [17] is Staphylococcus aureus C10. Described as above. The conditions noted are these: Staphylococcus aureus; strain C10; agar dilution; Mueller Hinton medium; 10^6 CFU/ml; read-out: MIC. As to the method:
as §1, §2, §3

The subject of assay [18] is Staphylococcus aureus TST-75. Described as above. The conditions noted are these: Staphylococcus aureus, TST75; strain TST-75; agar dilution; Mueller Hinton medium; 10^6 CFU/ml; read-out: MIC. As to the method: as §1, §2, §3
Assay [19] deals with Mycoplasma garisepticum S6. As to the kind of experiment: MIC against Mycoplasma (Table 3). The conditions noted are these: S6, 120 h, 10^6 CFU/ml, Hayflick medium, 37° C., 5 days. An excerpt:
| Inoculum size: 10^6 CFU/ml

Regarding `CN(C(=O)C[C@@H](N)CCCNC(=N)N)[C@H]1CNC(NC(N)=O)=NC1=O` [TAN-1057A], the MIC in assay [1] is 0.78 µg/mL (≈ 2.19 µM); in assay [2], 0.78 µg/mL (≈ 2.19 µM); in [3] it was 0.78 µg/mL (≈ 2.19 µM); in the assay with Staphylococcus aureus C3, 0.78 µg/mL (≈ 2.19 µM); in [4], ≤ 0.2 µg/mL; in [5] it was 0.78 µg/mL (≈ 2.19 µM). The MIC in [6] amounted to 0.78 µg/mL (≈ 2.19 µM); in assay [7], 0.78 µg/mL (≈ 2.19 µM); in assay [8], 1.56 µg/mL (≈ 4.39 µM); in assay [9], 0.78 µg/mL (≈ 2.19 µM); in assay [10] it was 0.39 µg/mL (≈ 1.1 µM); in [11], 1.56 µg/mL (≈ 4.39 µM). Moreover, the MIC in assay [12] amounted to 0.39 µg/mL (≈ 1.1 µM); in [13], 0.78 µg/mL (≈ 2.19 µM); in the assay on Staphylococcus aureus N8 it was 0.78 µg/mL (≈ 2.19 µM); in [14] it was 1.56 µg/mL (≈ 4.39 µM); in [15] it was 0.78 µg/mL (≈ 2.19 µM); in assay [16], 0.78 µg/mL (≈ 2.19 µM). Moreover, the figures for the MIC in assay [17], in assay [18] and in [19] were 0.78 µg/mL (≈ 2.19 µM), 0.78 µg/mL (≈ 2.19 µM) and 3.13 µg/mL (≈ 8.81 µM), respectively.
